According to patent EP0646315B1, “Novel compositions containing an auxin transport inhibitor and another herbicide” (Novartis AG, priority 1993, dated 1995):

Key:
velvetleaf [1] = experiment: Field trial, post-emergent tank mix in field corn; format: in vivo, Abutilon theophrasti; conditions: post-emergent 35 days after seeding, weeds 41 to 89 cm, foliar broadcast tank mix, (z) 0.275 kg/ha, (a) 0.011 kg/ha, Aquagene 0.9 l/ha where named
Procedure: (§1) A field trial was conducted against velvetleaf and pigweed in field corn. Application was post-emergent 35 days after seeding with weeds at a height of 41 to 89 cm. Application was of tank mixed formulation by foliar applied broadcast treatment. Compound (a) above was tank mixed as is. Compound (z) above was tank mixed in the form of a 0.5 kg/l s.c. commercially available under the trademark […]®. Aquagene is a commercially available surfactant, (Universal Coop Incorporated, Minneapolis, MN).

pigweed [2] = experiment: Field trial, post-emergent tank mix in field corn; format: in vivo, Amaranthus sp.; conditions: post-emergent 35 days after seeding, weeds 41 to 89 cm, foliar broadcast tank mix, (z) 0.275 kg/ha, (a) 0.011 kg/ha, Aquagene 0.9 l/ha where named
Procedure: as §1

velvetleaf [3] = experiment: Greenhouse test, post-emergence; format: in vivo, Abutilon theophrasti; conditions: treatment 10 days post-emergence, evaluation 18 days after treatment, (e) 0.01 kg/ha, (z) 0.02 kg/ha, 3 repetitions
Procedure: (§2) A greenhouse test was conducted against velvetleaf, pigweed, morningglory and cocklebur. Treatment was at 10 days post-emergence and evaluation at 18 days after treatment. Compound (e) was formulated as technical a.i. in a mixture of equal parts acetone and water with 1/2% surfactant. Compound (z) was used in the commercially available form […]® herbicide (=480g/L a.i. equivalent) in water with 1/2% surfactant. The tank mixes were applied in a linear spray chamber with 3 repetitions per concentration.

pigweed [4] = experiment: Greenhouse test, post-emergence; format: in vivo, Amaranthus sp.; conditions: treatment 10 days post-emergence, evaluation 18 days after treatment, (e) 0.01 kg/ha, (z) 0.02 kg/ha, 3 repetitions
Procedure: as §2

morningglory = experiment: Greenhouse test, post-emergence; format: in vivo, Ipomoea sp.; conditions: treatment 10 days post-emergence, evaluation 18 days after treatment, (e) 0.01 kg/ha, (z) 0.02 kg/ha, 3 repetitions
Procedure: as §2

cocklebur = experiment: Greenhouse test, post-emergence; format: in vivo, Xanthium strumarium; conditions: treatment 10 days post-emergence, evaluation 18 days after treatment, (e) 0.01 kg/ha, (z) 0.02 kg/ha, 3 repetitions
Procedure: as §2

Molecule: 2-acetylnicotinic acid 4-(3,5-difluorophenyl)semicarbazone 2-(2-hydroxyethoxy)ethyl-ammonium salt [Compound (a)]
- % of control Velvetleaf (velvetleaf [1]): 13%
- % of control Pigweed (pigweed [2]): 18%

Molecule: COc1c(Cl)ccc(Cl)c1C(=O)O [Compound (z), dicamba]
- activity at 275 g/ha (velvetleaf [1]; Abutilon theophrasti, 840 h, read-out: % of control Velvetleaf): 18%
- activity at 275 g/ha (pigweed [2]; Amaranthus retroflexus, 840 h, read-out: % of control Pigweed): 30%
- % control Velvetleaf (velvetleaf [3]): 35%
- % control Pigweed (pigweed [4]): 35%
- % control Morningglory (morningglory): 35%
- % control Cocklebur (cocklebur): 75%
